Assay results published in publication PMC8329300, “X-ray crystallography reveals molecular recognition mechanism for sugar binding in a melibiose transporter MelB” (Communications Biology, 2021).
Where “and” joins values, the source holds several entries; their conditions need not be identical. Equal entries are not always repeated. Where two headings read alike, the source gives them in different places.

What was measured:
WT MelBSt [1] = molecular target: T1, WT MelBSt (Salmonella typhimurium, UniProt P30878); test: biochemical; assay type: binding; conditions: for effect on Trp→D2G FRET of D2G-bound protein (displacement): added to D2G-bound WT MelBSt; for IC50: IC50 of galactoside displacement on bound D2G, DDMB, 10 μM D2G, value could be over-estimated
T1 construct: Cys scanning mutagenesis for the full-length MelBSt; His10 (C); made in house; host or cells: E. coli DW2
Description: (§1) Fig. 1 Functional characterizations. a [^3H] Melibiose transport time course with intact cells. […] Inset, melibiose fermentation assay. Transformants with DW2 strain were plated on MacConkey agar plates containing 30 mM melibiose as the sole carbohydrate source and pH sensor neutral red, and incubated at 37 °C for 16–18 h before imaging. Number of tests = 3, from different batch of cells or duplicate measurements from same batch of sample. b Ligand binding by Trp→dansyl galactoside (D^2G) FRET assay. Purified proteins at 1 μM concentration in 20 mM Tris-HCl, pH 7.5, 100 mM CholCl, 10% glycerol, and 0.03% UDM were subjected to steady-state fluorescence measurements as described in Methods. On the time-trace, 1.8 μL of 1 mM D^2G at 10 μM was added into 180 μL of protein solutions at 1-min point, followed by supplying 10 μL of 5 mM DDMB or 5 mM α-NPG to displace the bound D^2G. For testing Na^+ or Li^+ binding, they are added into the solution before displacement with the second sugar. The structure of DDMB or α-NPG is shown in a chair form, and the carbon positions are labeled. Glycosidic bonds are indicated by arrows. Both are α-galactosides containing a substituent at the anomeric carbon-1. The data were from duplicate measurements.
(§2) Steady-state fluorescence measurements were performed with an AMINCO-Bowman series 2 spectrometer with purified MelBSt at 1 μM in 20 mM Tris-HCl, pH 7.5, 100 mM CholCl, 10% glycerol, 0.03% UDM. Using an excitation wavelength at 290 nm, the emission intensity was recorded at 490 nm. On a time-trace, D^2G, NaCl or LiCl, then DDMB or α-NPG, were sequentially added into the protein solutions at a 1 min-interval. […] An identical volume of water was used for the control. The decrease in intensity after each addition of DDMB or α-NPG was corrected by the dilution effect and plotted as a function of the accumulated α-NPG concentrations or estimated DDMB concentrations. The 50% inhibitory concentration (IC50) was determined by fitting a hyperbolic function to the data (OriginPro 2020b). The final concentration of each detergent is estimated to be 234 μM, which is less than their CMC value for (DDMB, 295 μM).
(§3) Supplementary Figure 2. Determination of DDMB binding affinity to MelBSt. (a) Titration with DDMB or a-NPG. MelBSt in 20 mM Tris-HCl, pH 7.5, 100 mM CholCl, 10% glycerol, 0.03% UDM without (1) or with 100 mM NaCl (2) were added with D2G at 10 μM at 1-min time point as indicated by triangle symbols on the Trp®dansyl FRET time trace. Starting at the 2-min of time point, DDMB or a-NPG solution was supplemented consecutively at a 1-min interval into MelBSt solution till no change in fluorescence intensity reached as indicated in star symbols. DDM and UDM were used as negative controls. 1% DDM or UDM was titrated into the mixture, The […]
(§4) At 2-min time point, additions of galactosides were colored in pink, a-NPG in yellow, UDM in blue, DDM in light blue, water in gray traces, respectively. (b) IC50 determination. The intensity decrease at each titration were corrected by the dilution effect, and plotted as a function of the accumulated DDMB or α-NPG concentration. The 50% inhibitory concentration (IC50) was determined by fitting the data to a hyperbolic function (OriginPro 2020b). Results are presented in […]
(§5) (1 picture or pasted object on this page, not shown here)

WT MelBSt [2] = molecular target: T1, WT MelBSt; conditions: ITC 25 °C, data from publication or averaged with more tests, read-out: Kd, Na+ binding, cited from earlier work
D59C MelBSt [3] = molecular target: T2, D59C MelBSt (Salmonella typhimurium, UniProt P30878, D59C); test: biochemical; assay type: binding; conditions: even with increased concentration or in the presence of melibiose; Kd not determinable
T2 construct: Cys scanning mutagenesis for the full-length MelBSt; His10 (C); made in house; host or cells: E. coli DW2
Description: (§6) All ITC ligand-binding assays were performed with the TA Instruments (Nano-ITC device) at 25 °C. In a typical experiment, the titrand (MelBSt) in the ITC sample cell was titrated with the specified titrant (placed in the Syringe) by an incremental injection of 2-µL aliquots at an interval of 300 s at a constant stirring rate of 250 r.p.m. All samples were degassed using a TA Instruments Degassing Station (model 6326) for 15 min prior to the titration. Data processing was performed with the NanoAnalyze (version 3.6.0 software) provided with the ITC equipment. The normalized heat changes were subtracted from the heat of dilution elicited by last few injections, where no further binding occurred; the corrected heat changes were plotted against the molar ratio of titrant versus titrand. The values for association constant (Ka) value were determined by fitting the data with a one-site independent-binding model. At most cases, the binding stoichiometry (N) number was fixed to 1 since it is a known parameter, which can restrain the data fitting and achieve more accurate results. The dissociation constant Kd = 1/Ka.
(§7) Supplementary Figure 1. ITC measurements. ITC measurements were performed at 25 °C as described in Methods. (a) Binding thermography. For all tests, ligands and proteins are buffer- […]
(§8) (1 picture or pasted object on this page, not shown here) […]
(§9) matched. For melibiose binding measurements, a solution of 80 mM or 10 mM in the absence or presence of NaCl at 100 mM, was injected into the ITC sample cell containing the WT MelBSt at 80 μM without or with 100 mM NaCl, respectively. With the D59C mutant, […] was used. For α-NPG binding measurements, 0.5 mM or 0.4 mM solution was used to titrate the WT or D59C mutant at 50 μM in the absence or presence or 100 mM NaCl, respectively. For the Na+ or Li+ binding measurements, 5 mM or 2 mM solution was used to titrate WT MelBSt at 80 μM without or with 50 mM melibiose, respectively; 40 mM solutions was used to titrate the D59C mutant. (b) binding isotherm. Curve fit was carried out with a one-site independent-binding model included in the NanoAnalyze software (version 3.6.0).

WT MelBSt [4] = molecular target: T1, WT MelBSt; test: biochemical; assay type: binding
Description: as §6, §7, §8, §9

D59A MelBSt = molecular target: T3, D59A MelBSt (Salmonella typhimurium, UniProt P30878, D59A); test: Trp→dansyl galactoside (D2G) FRET time trace (D59A); assay type: binding; conditions: no Na+ or Li+ stimulation
T3 construct: Cys scanning mutagenesis for the full-length MelBSt; His10 (C); made in house; host or cells: E. coli DW2
Description: Fig. 1 Functional characterizations. a [^3H] Melibiose transport time course with intact cells. E. coli DW2 strain (melB^−, lacZ^−Y^−) expressed with the WT, D59C, or D59A MelBSt mutants were subjected to [^3H]melibiose active transport assay at 0.4 mM and 10 mCi/mmol in the presence of 20 mM or 100 mM NaCl or LiCl by a fast filtration method. Inset, melibiose fermentation assay. Transformants with DW2 strain were plated on MacConkey agar plates containing 30 mM melibiose as the sole carbohydrate source and pH sensor neutral red, and incubated at 37 °C for 16–18 h before imaging. Number of tests = 3, from different batch of cells or duplicate measurements from same batch of sample. b Ligand binding by Trp→dansyl galactoside (D^2G) FRET assay. Purified proteins at 1 μM concentration in 20 mM Tris-HCl, pH 7.5, 100 mM CholCl, 10% glycerol, and 0.03% UDM were subjected to steady-state fluorescence measurements as described in Methods. […]
Steady-state fluorescence measurements were performed with an AMINCO-Bowman series 2 spectrometer with purified MelBSt at 1 μM in 20 mM Tris-HCl, pH 7.5, 100 mM CholCl, 10% glycerol, 0.03% UDM. Using an excitation wavelength at 290 nm, the emission intensity was recorded at 490 nm. […]

D59C MelBSt [5] = molecular target: T2, D59C MelBSt; test: Trp→dansyl galactoside (D2G) FRET time trace and IC50 of D2G displacement (D59C); assay type: binding; conditions: IC50 of galactoside displacement on bound D2G, DDMB, 10 μM D2G, value could be over-estimated
Description: as §1, §2, §3, §4, §5

T1 sequence (P30878 whole entry): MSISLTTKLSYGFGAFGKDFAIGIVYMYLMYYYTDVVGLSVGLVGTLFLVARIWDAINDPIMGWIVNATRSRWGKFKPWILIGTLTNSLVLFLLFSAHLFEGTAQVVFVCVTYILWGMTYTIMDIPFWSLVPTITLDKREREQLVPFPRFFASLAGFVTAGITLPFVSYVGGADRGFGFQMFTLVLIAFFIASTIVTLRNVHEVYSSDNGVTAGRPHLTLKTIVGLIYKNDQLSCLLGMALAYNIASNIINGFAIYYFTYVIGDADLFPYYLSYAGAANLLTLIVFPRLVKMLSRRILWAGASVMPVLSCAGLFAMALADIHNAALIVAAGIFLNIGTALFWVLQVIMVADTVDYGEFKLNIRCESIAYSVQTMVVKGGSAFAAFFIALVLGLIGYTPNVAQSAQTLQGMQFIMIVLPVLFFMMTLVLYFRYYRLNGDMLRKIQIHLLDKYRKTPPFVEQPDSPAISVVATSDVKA
T2 sequence (P30878 whole entry D59C): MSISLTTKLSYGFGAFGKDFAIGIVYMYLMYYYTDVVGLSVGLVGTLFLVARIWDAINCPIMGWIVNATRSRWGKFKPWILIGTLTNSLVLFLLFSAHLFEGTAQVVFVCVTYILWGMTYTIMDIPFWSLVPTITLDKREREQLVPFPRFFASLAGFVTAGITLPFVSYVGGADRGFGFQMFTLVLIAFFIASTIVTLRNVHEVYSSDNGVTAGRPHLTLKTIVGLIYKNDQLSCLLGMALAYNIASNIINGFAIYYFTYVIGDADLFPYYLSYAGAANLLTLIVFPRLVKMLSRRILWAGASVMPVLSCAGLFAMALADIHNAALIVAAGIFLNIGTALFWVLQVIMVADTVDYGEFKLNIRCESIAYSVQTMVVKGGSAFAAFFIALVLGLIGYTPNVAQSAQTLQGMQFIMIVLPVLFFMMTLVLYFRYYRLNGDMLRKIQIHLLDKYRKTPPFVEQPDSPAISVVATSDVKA
T3 sequence (P30878 whole entry D59A): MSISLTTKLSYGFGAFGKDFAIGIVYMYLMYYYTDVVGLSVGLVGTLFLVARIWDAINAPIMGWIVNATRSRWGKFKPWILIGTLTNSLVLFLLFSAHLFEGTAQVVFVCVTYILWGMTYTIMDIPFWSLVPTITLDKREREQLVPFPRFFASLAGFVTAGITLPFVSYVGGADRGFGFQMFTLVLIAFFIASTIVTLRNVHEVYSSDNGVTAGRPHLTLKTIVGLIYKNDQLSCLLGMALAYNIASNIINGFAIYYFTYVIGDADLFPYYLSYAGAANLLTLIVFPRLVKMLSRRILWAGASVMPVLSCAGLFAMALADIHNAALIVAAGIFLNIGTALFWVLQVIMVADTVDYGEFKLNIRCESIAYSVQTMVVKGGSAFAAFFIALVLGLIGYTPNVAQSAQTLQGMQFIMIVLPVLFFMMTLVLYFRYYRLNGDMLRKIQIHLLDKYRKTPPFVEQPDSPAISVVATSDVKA

CCCCCCCCCCCO[C@@H]1O[C@H](CO)[C@@H](O[C@H]2O[C@H](CO)[C@@H](O)[C@H](O)[C@H]2O)[C@H](O)[C@H]1O [UDM, undecyl-β-D-maltopyranoside]
effect on Trp→D2G FRET of D2G-bound protein (displacement) (WT MelBSt [1]): only showed a dilution effect similar to the addition of water

[Na+] [Na^+]
Kd (WT MelBSt [2]; Apo): 680 ± 30 µM
Kd (WT MelBSt [2]; Melibiose (50 mM)): 80 ± 10 µM
heat changes derived from cation binding (ITC) (D59C MelBSt [3]): quite small
cooperativity, change of Kd with melibiose (WT MelBSt [4]; Na+ binding, apo vs melibiose): 8 fold
Kd (WT MelBSt [4]; apo MelB, rebuttal letter, read-out: affinity of apo MelB): 500 µM

CCCCCCCCCCCCOC1OC(COC2OC(CO)C(O)C(O)C2O)C(O)C(O)C1O [DDMB, dodecyl-β-D-melibioside]
ligand binding by Trp→D2G FRET (D59A MelBSt): binds
IC50 (WT MelBSt [1]; Apo): 26.1 ± 5.46 µM
IC50 (WT MelBSt [1]; Na+ (100 mM)): 4.79 ± 0.28 µM
effect on Trp→D2G FRET of D2G-bound protein (displacement) (WT MelBSt [1]): large decrease in fluorescent intensity
decrease of IC50 in the presence of Na+ (WT MelBSt [1]; apo vs Na+): 5 fold
IC50 (D59C MelBSt [5]; Apo): 20 µM and 20.2 µM
IC50 (D59C MelBSt [5]; Na+ (100 mM)): 23.6 ± 3.9 µM

CCCCCCCCCCCCO[C@@H]1O[C@H](CO)[C@@H](O[C@H]2O[C@H](CO)[C@@H](O)[C@H](O)[C@H]2O)[C@H](O)[C@H]1O [DDM, dodecyl-β-D-maltopyranoside]
effect on Trp→D2G FRET of D2G-bound protein (displacement) (WT MelBSt [1]): only showed a dilution effect similar to the addition of water

[Li+] [Li^+]
heat changes derived from cation binding (ITC) (D59C MelBSt [3]): quite small
Kd (WT MelBSt [4]; Apo, ITC 25 °C, read-out: Kd, Li+ binding): 400 ± 100 µM
decrease of Kd in the presence of melibiose (WT MelBSt [4]; Li+ binding, apo vs melibiose): 6 fold
Kd (WT MelBSt [4]; Melibiose (50 mM), ITC 25 °C, read-out: Kd, Li+ binding): 70 ± 10 µM
